Assay results taken from paper PMC7793975, “Design and Optimization of Quinazoline Derivatives: New Non-nucleoside Inhibitors of Bovine Viral Diarrhea Virus” (Frontiers in Chemistry, 2020).
Converted amounts (≈) assume the structure as drawn. “And” between values parts separate entries of the source, which are not always exact repeats. Identical values can stand only once. Like-named read-outs stand apart in the source and are kept apart here.

How the values were obtained:
[1] = Bovine plasma stability (HPLC-MS); format: in vitro ADME; details: 120 min incubation, read-out: Stability t1/2 Bovine plasma
Experimental: (§1) Stability assays were performed according to the procedure described in a previous work (Leal et al., [2019]). Samples were taken at different incubation times and analyzed by high-performance liquid chromatography–mass spectrometry (HPLC–MS) using a Waters Alliance e2695 system (Waters Corporation, Milford, MA, USA) fitted with a Phenomenex Kinetex® XB-C18 column (150 × 4.6 mm, 5-μm particle size, Phenomenex Inc., Torrance, CA, USA) coupled to a Waters SQD2 single quadrupole mass spectrometer with an ESI source. A gradient elution was applied using 40% water and 0.1% acetic acid (mobile phase A) and 40% methanol (mobile phase B), with the following program: 0–3 min 40% B; 3–7 min 40–90% B; and 7–20 min 90% B. The flow rate was kept constant at 0.35 ml min^−1. […]
(§2) Compound 1.9 was selected to perform in vitro physicochemical studies (solubility and stability). The solubility (S) was evaluated at SGF (pH 1.2), SIF (pH 6.8), and PBS solution (pH 7.4), employing the shake-flask method with UV spectroscopy (Bollini et al., [2013]). […] The stability was evaluated by calculating the percentage of remaining drug (HPLC–MS) after contact with different incubation media (SIF, SGF, PBS, mouse, and bovine plasma) for 120 min. […] Neither compound modification nor degradation was detected after the different incubation periods. […]

[2] = Shake-flask solubility (UV-Vis); format: physicochemical; details: thermodynamic from solid
Experimental: Verapamil was used as internal control. More detailed information is available in the Supplementary Material.
(§3) UV-Visible spectrums were measured with a UV3600 UV -Vis-NIR spectrophotometer in a range of 500 -200 nm using a quartz cuvette. The measurements were determined at λ values corresponding to the maximum of absorption . Baselines were determined with MeOH :media (1:1) mixture . Sample concentrations were determined using maximum absorption value s. All compounds were tested in […]
(§4) Preparation of calibration curve
(§5) From this solution, different volumes were combined with MeOH:media (1:1) mixture to obtain concentrations between 2.0 – 40.0 µg/mL. […]
(§6) intestinal fluid (SIF, pH 6.8) or phosphate buffered saline solution (PBS, pH 7.4) was added. The vial contents were mixed at 1500 rpm at 37 °C for 24 h and then incubated at 37 °C for 24 h without stirring. Samples were filtered (0.2 μm, Sterile Acrodisc® 13, GelmanScience) before analysis.
(§7) The filtered solutions were diluted in MeOH:media (1:1) mixture to achieved final concentrations of 0.01 (SGF), 0.02 (SIF) and 0.04 µg/mL (PBS). Verapamil and pr ocaine were used as internal […]
(§8) DMSO and water/DMSO (98:2) stability […]
(§9) were measured in a range of 500-200 nm using a quartz cuvette and the absorption was determined at 331 nm. Samples with 1.0 mg of 1.9 in 1 mL of DMSO or water/DMSO (98:2) mixture were prepared, and they were kept at room temperature without stir ring. Independent samples were measured every 1 week over 5 weeks. For the measurements, solutions were diluted at 1/100 in DMSO and 1/50 in water:DMSO (98:2) mixture. The values in the chart are the mean of three

[3] = Mouse plasma stability (HPLC-MS); format: in vitro ADME; details: mouse/murine plasma, 120 min incubation; read-out: Stability t1/2 Mouse/murine plasma
Experimental: as §1, §2

BVDV type 1 NADL strain = test: Anti-BVDV assay (CPE reduction, MTS/PMS); format: cell-based, Bovine viral diarrhea virus; details: for EC50: BVDV NADL in MDBK cells, MOI 0.01, 3 days, reduces viral CPE by 50%, Inactive: <50% of inhibition of CPE at MNCC; for SI (CC50/EC50): in vitro selectivity index, MDBK cells / BVDV NADL
Experimental: (A) Cytotoxicity. […] Mock-treated cells were added as control. […] (B) Antiviral activity.
Madin-Darby bovine kidney cells (MDBK NBL-1; ATCC CCL-22) were grown in Eagle's Minimum Essential Medium (E-MEM), supplemented with 10% biotechnological fetal bovine serum (Internegocios, Argentina) (GM) at 37°C and 5% CO2. The BVDV type 1 NADL strain, cytopathic biotype (BVDV-1, ATCC VR 534), was provided by Dr. Laura Weber (INTA Castelar, Argentina).
Then, serial dilutions of the test compounds in IM were added. […] After incubation for 3 days at 37°C and 5% CO2, the culture medium was removed, cell monolayers were washed twice with PBS, and IM supplemented with MTS/PMS was added to each well. The absorbance of each well was read at 490 nm. The EC50 was defined as the concentration of compound that prevented 50% of the virus-induced CPE and was calculated by interpolation in dose–response curves.

[4] = Cytotoxicity assay (MTS/PMS); details: bovine, MDBK cells
Experimental: (§10) (A) Cytotoxicity. Sub-confluent MDBK cell monolayers grown in 96-well plates were treated with 2-fold serial dilutions of each compound in IM. Mock-treated cells were added as control. Cells were incubated and allowed to proliferate for 3 days at 37°C and 5% CO2. Cell viability was then determined by the MTS/PMS method. (B) Antiviral activity. Sub-confluent MDBK cell monolayers grown in 96-well plates were infected with BVDV NADL (MOI = 0.01) and treated with different concentrations of the compounds. Mock-infected cells and mock-treated infected cells were included as controls in each plate. After 3 days at 37°C and 5% CO2, cell viability was determined by the MTS/PMS method, and the percentage of the viral CPE inhibition was calculated.
(§11) MDBK cells were seeded in 96-well plates at a density of 1 × 10^4 cells per well in GM. After 24 h, the culture medium was removed, monolayers were washed twice with phosphate-buffered saline (PBS), and serial dilutions of the test compounds were made in E-MEM supplemented with donor horse serum (DHS, Gibco, IM) and added. Cultures were incubated for 3 days at 37°C, and then, cell viability was determined by the MTS/PMS method according to the manufacturer's instructions (Promega). After incubation for 3 h at 37°C and 5% CO2, the absorbance was determined at 490 nm. The 50% cytotoxic concentration (CC50) was defined as the concentration of compound that inhibited the proliferation of exponentially growing cells by 50% and was calculated by interpolation in dose–response curves.

MDBK cells = test: Cytotoxicity assay (MTS/PMS); details: MDBK cells, 3 days
Experimental: as §10, §11

[5] = Stability in SGF, SIF, PBS (HPLC-MS); format: physicochemical
Experimental: Stability assays were performed according to the procedure described in a previous work (Leal et al., [2019]). Samples were taken at different incubation times and analyzed by high-performance liquid chromatography–mass spectrometry (HPLC–MS) using a Waters Alliance e2695 system (Waters Corporation, Milford, MA, USA) fitted with a Phenomenex Kinetex® XB-C18 column (150 × 4.6 mm, 5-μm particle size, Phenomenex Inc., Torrance, CA, USA) coupled to a Waters SQD2 single quadrupole mass spectrometer with an ESI source. A gradient elution was applied using 40% water and 0.1% acetic acid (mobile phase A) and 40% methanol (mobile phase B), with the following program: 0–3 min 40% B; 3–7 min 40–90% B; and 7–20 min 90% B. The flow rate was kept constant at 0.35 ml min^−1. After each sample injection, the gradient was returned to its initial conditions in 16 min. The injection volume was 5 μl. The column temperature was 35°C. The mass spectrometer was operated in positive ion mode with a probe capillary voltage of 2.5 kV. The sampling cone voltage was set to 35.0 V. The source and desolvation gas temperatures were set at 150 and 350°C, respectively. The nitrogen gas desolvation flow rate was 600 L h^−1, and the cone gas flow rate was 10 L h^−1. The mass spectrometer was calibrated across the range of m/z 20–2,023 with a sodium and cesium iodide solution. Data were acquired in scan mode with a scan duration of 0.2 s and in SIR mode with unit resolution. Data acquisition and processing were carried out using MassLynx software, version 4.1. […]
as §2

[6] = DMSO and water/DMSO (98:2) stability (UV-Vis); format: physicochemical; details: room temperature
Experimental: as §3, §4, §5, §6, §7, §8
as §9, with “For the measurements, solutions were diluted at 1/100 in DMSO and 1/50 in water:DMSO (98:2) mixture. The values in the chart are the mean of three” left out

[7] = Bovine viral diarrhea virus isolates and strains, MDBK, 72 h, read-out: EC50

OCCN1CCN(c2nc(-c3ccccc3)nc3ccccc23)CC1 [Compound 1.9, 2-[4-(2-Phenylquinazolin-4-yl)piperazin-1-yl]ethanol]
half-life [1]: > 2 h | solubility at 24 h ([2]; phosphate buffered saline (PBS), aqueous buffer, PBS pH 7.4, 37 °C, read-out: Solubility PBS): 300 ± 100 µg/mL (≈ 897 µM) | solubility at 24 h ([2]; simulated gastric fluid (SGF), simulated gastric fluid pH 1.2, 37 °C, read-out: Solubility SGF): 8700 ± 400 µg/mL (≈ 26000 µM) | solubility at 24 h ([2]; simulated intestinal fluid (SIF), fassgf or other biorelevant, simulated intestinal fluid pH 6.8, 37 °C, read-out: Solubility SIF): 400 ± 200 µg/mL (≈ 1200 µM) | half-life [3]: > 2 h | EC50 (BVDV type 1 NADL strain; read-out: EC50): 1.8 ± 0.4 µM | EC50 (BVDV type 1 NADL strain; Bovine viral diarrhea virus isolates and strains, MDBK, 72 h): 1.7 ± 0.4 µM | SI (CC50/EC50) (BVDV type 1 NADL strain): 17.8 | CC50 at 3 days [4]: 32 ± 1.9 µM | MNCC (maximum non-cytotoxic concentration) (MDBK cells): 12.5 µM and 12.5 ± 2.4 µM | half-life ([5]; PBS pH 7.4, 120 min incubation, read-out: Stability t1/2 PBS): > 2 h | half-life ([5]; simulated gastric fluid (SGF), SGF pH 1.2, 120 min incubation, read-out: Stability t1/2 SGF): > 2 h | half-life ([5]; simulated intestinal fluid (SIF), SIF pH 6.8, 120 min incubation, read-out: Stability t1/2 SIF): > 2 h | time stable in DMSO ([6]; 1.0 mg/mL in DMSO): ≥ 5 weeks | time stable in water/DMSO (98:2) ([6]; 1.0 mg/mL in water/DMSO (98:2)): ≥ 5 weeks

CN(C)c1ccc(-c2nc(N3CCN(CCO)CC3)c3ccccc3n2)cc1 [Compound 1.18, 2-(4-{2-[4-(N,N-Dimethylamino)phenyl]quinazolin-4-yl}piperazin-1-yl)ethanol]
EC50 (BVDV type 1 NADL strain; [7]): 3.5 ± 0.6 µM | SI (CC50/EC50) (BVDV type 1 NADL strain): 17.4 | CC50 at 3 days [4]: 61 ± 2.5 µM | MNCC (maximum non-cytotoxic concentration) (MDBK cells): 26.1 ± 1.2 µM

CN(C)CCCNc1nc(-c2ccccc2)nc2ccccc12 [Compound 1.7, N^1,N^1-Dimethyl-N^3-(2-phenylquinazolin-4-yl)propane-1,3-diamine]
EC50 (BVDV type 1 NADL strain; [7]): 4.6 ± 1 µM | SI (CC50/EC50) (BVDV type 1 NADL strain): 12.4 | CC50 at 3 days [4]: 57 ± 0.01 µM | MNCC (maximum non-cytotoxic concentration) (MDBK cells): 18.6 ± 2.6 µM

O=[N+]([O-])c1ccc(-c2nc(NCCN3CCCCC3)c3ccccc3n2)cc1 [Compound 1.15, 2-(4-Nitrophenyl)-N-[2-(piperidin-1-yl)ethyl]quinazolin-4-amine]
EC50 (BVDV type 1 NADL strain; [7]): 5.8 ± 0.6 µM | SI (CC50/EC50) (BVDV type 1 NADL strain): 5.2 | CC50 at 3 days [4]: 30.2 ± 0.5 µM | MNCC (maximum non-cytotoxic concentration) (MDBK cells): 14.6 ± 3.1 µM

O=[N+]([O-])c1ccc(-c2nc(N3CCN(CCO)CC3)c3ccccc3n2)cc1 [Compound 1.16, 2-{4-[2-(4-Nitrophenyl)quinazolin-4-yl]piperazin-1-yl}ethanol]
EC50 (BVDV type 1 NADL strain): Inactive | CC50 at 3 days [4]: 12 ± 2.1 µM | MNCC (maximum non-cytotoxic concentration) (MDBK cells): 5.9 ± 1.4 µM

c1ccc(CN2CCC(Nc3nc(-c4ccccc4)nc4ccccc34)CC2)cc1 [Compound 1.11, N-(1-Benzylpiperidin-4-yl)-2-phenylquinazolin-4-amine]
EC50 (BVDV type 1 NADL strain): Inactive | CC50 at 3 days [4]: 22.2 ± 1.2 µM | MNCC (maximum non-cytotoxic concentration) (MDBK cells): 7.5 ± 0.1 µM

CN1CCN(c2nc(-c3ccccc3)nc3ccccc23)CC1 [Compound 1.8, 4-(4-Methylpiperazin-1-yl)-2-phenylquinazoline]
EC50 (BVDV type 1 NADL strain; [7]): 1.4 ± 0.1 µM | SI (CC50/EC50) (BVDV type 1 NADL strain): 48.6 | CC50 at 3 days [4]: 68 ± 8.4 µM | MNCC (maximum non-cytotoxic concentration) (MDBK cells): 19.8 ± 4.0 µM

c1ccc(-c2nc(NCCN3CCCCC3)c3ccccc3n2)cc1 [Compound 1.10, 2-Phenyl-N-[2-(Piperidin-1-yl)ethyl]quinazolin-4-amine]
EC50 (BVDV type 1 NADL strain; [7]): 1.4 ± 0.8 µM | SI (CC50/EC50) (BVDV type 1 NADL strain): 14.0 | CC50 at 3 days [4]: 19.6 ± 6.3 µM | MNCC (maximum non-cytotoxic concentration) (MDBK cells): 6.4 ± 1.1 µM
